Literature values in US20090082295A1, “COMBINATIONS AND METHODS OF USING AN IMMUNOMODULATORY OLIGODEOXYNUCLEOTIDE” (PFIZER INC., priority 2005, published 2009).
Counter-ions that a name gives are not always drawn.

What was measured:
mitotic microtubules = settings: intact tectal plates from mouse embryos
axonal microtubules = settings: intact tectal plates from mouse embryos
mammalian cells = settings: high concentrations
[1] = combination with cisplatin
[2] = tested on: CALU-6 human lung xenograft
[3] = tested on: LX-1 human lung xenograft
[4] = tested on: Lewis lung murine xenograft
[5] = tested on: topoisomerase I purified from human and rodent tumor cell lines; settings: purified enzyme
[6] = tested on: rat mammary carcinoma induced by dimethylbenzanthracene (DMBA)
[7] = tested on: xenotransplant models of colon cancer; settings: nude (athymic) mice

CCC1=C[C@@H]2CN(C1)Cc1c([nH]c3ccccc13)[C@@](C(=O)OC)(c1cc3c(cc1OC)N(C)[C@H]1[C@@](O)(C(=O)OC)[C@H](OC(C)=O)[C@]4(CC)C=CCN5CC[C@]31[C@@H]54)C2 (relative stereo) [vinorelbine, 3′,4′-didehydro-4′-deoxy-C′-norvincaleukoblastine[R—(R*,R*)-2,3-dihydroxybutanedioate (1:2) (salt)]]
concentration inhibiting mitotic microtubule formation, inducing a blockade of cells at metaphase (mitotic microtubules): 2 µM | concentration producing depolymerization of axonal microtubules (axonal microtubules): 40 µM

COc1cc([C@@H]2c3cc4c(cc3[C@@H](O[C@@H]3O[C@@H]5CO[C@@H](C)O[C@H]5[C@H](O)[C@H]3O)[C@H]3COC(=O)[C@H]23)OCO4)cc(OC)c1O [Etoposide, 4′-Demethylepipodophyllotoxin 9-[4,6-0-(R)-ethylidene-β-D-glucopyranoside]]
concentration at which lysis of cells entering mitosis is observed (mammalian cells): ≥ 10 µg/mL

Nc1ccn([C@@H]2O[C@H](CO)[C@@H](O)C2(F)F)c(=O)n1 [Gemcitabine, 2′-deoxy-2′,2′-difluorocytidine monohydrochloride (β-isomer)]
activity with cisplatin in vitro [1]: dose-dependent synergistic activity | activity in combination with cisplatin (NCI-H520 xenograft): minimal activity | activity in combination with cisplatin [2]: showed activity | activity in combination with cisplatin (NCI-H460 xenograft): minimal activity | activity in combination with cisplatin [3]: showed activity | interaction with cisplatin [4]: synergistic

CCc1c2c(nc3ccc(O)cc13)-c1cc3c(c(=O)n1C2)COC(=O)[C@]3(O)CC [SN-38]
potency as inhibitor of topoisomerase I relative to irinotecan [5]: approximately 1000 times

CC/C(=C(\c1ccccc1)c1ccc(OCCN(C)C)cc1)c1ccccc1 [Tamoxifen, (Z)2-[4-(1,2-diphenyl-1-butenyl)phenoxy]-N, Ndimethylethanamine 2-hydroxy-1,2,3-propanetricarboxylate (1:1)]
effect on DMBA-induced mammary carcinoma [6]: inhibits the induction of rat mammary carcinoma induced by dimethylbenzanthracene (DMBA) and causes the regression of already established DMBA-induced tumors

CC[C@]1(O)C[C@@H]2CN(CCc3c([nH]c4ccccc34)[C@@](C(=O)OC)(c3cc4c(cc3OC)N(C)[C@H]3[C@@](O)(C(=O)OC)[C@H](OC(C)=O)[C@]5(CC)C=CCN6CC[C@]43[C@@H]65)C2)C1 [vinblastine]
concentration inhibiting mitotic microtubule formation, inducing a blockade of cells at metaphase (mitotic microtubules): 2 µM | concentration producing depolymerization of axonal microtubules (axonal microtubules): 30 µM

CC[C@]1(O)C[C@H]2CN(CCc3c([nH]c4ccccc34)[C@@](C(=O)OC)(c3cc4c(cc3OC)N(C=O)[C@H]3[C@@](O)(C(=O)OC)[C@H](OC(C)=O)[C@]5(CC)C=CCN6CC[C@]43[C@@H]65)C2)C1 [vincristine]
concentration inhibiting mitotic microtubule formation, inducing a blockade of cells at metaphase (mitotic microtubules): 2 µM | concentration producing depolymerization of axonal microtubules (axonal microtubules): 5 µM

bevacizumab: recombinant humanized monoclonal IgG1 antibody that binds human VEGF
effect on microvascular growth and metastatic disease progression [7]: reduction of microvascular growth and inhibition of metastatic disease progression
